According to PMC6407599 (Journal of Enzyme Inhibition and Medicinal Chemistry, 2019):
Where “and” joins values, the source holds several entries; their conditions need not be identical. Identical values can stand only once. Counter-ions that a name gives are not always drawn. Like-named read-outs stand apart in the source and are kept apart here. Square brackets hold non-standard residues; d marks the D form. Peptide text beside a SMILES is read from it. * marks the point of attachment. Lys(Me2) = CN(C)CCCC[C@H](N)C(=O)O; Lys(Me) = CNCCCC[C@H](N)C(=O)O; Cbz = O=C(OCc1ccccc1)*

How the values were obtained:
[1] = Metabolism assay using human liver microsomes; type: in vitro ADME; conditions: for cleavage of acetyl or trifluoroacetyl group by human liver microsomes: 180 min incubation; for cleavage of acetyl group by human liver microsomes: after 10 min
Protocol: Human liver microsomes (Life Technologies Gibco cat. # HMMPCL) were thawed on ice and suspended in 100 mM phosphate buffer (pH 7.4) at 0.5 mg/mL. Compounds dissolved in DMSO were then added to the reaction mixture at a final concentration of 5 µM and a final DMSO concentration of 0.1%. Metabolism was initiated by adding 5 mM NADPH and the reactions were incubated at 37 °C in a water bath. Fifty microlitre aliquots of the reaction mixture were taken at various time points and added to 100 µL of cold methanol to terminate the reaction. The time points were centrifuged at 1000 × g for 5 min. Samples were stored at −20 °C until LC/MS analysis.
Using commercially available liver microsomes that contain the full set of endoplasmic reticulum-based metabolic enzymes, including Cyp450s, in an in vitro system the O- and N-dealkylation processes of LB55 were evaluated (Figure 3)[47–48]. Human liver microsomes were purchased from Life Technologies Australia Pty Ltd (catalogue number HMMCPL) and were prepared from a pool of 50 individual male and female donors. The microsomes were diluted into phosphate buffer at pH 7.4 and incubated with LB55 at 37 °C in the presence of the enzyme cofactor NADPH, which initiates the reactions. Aliquots of the reaction mixture were taken at several time points and quenched with cold methanol, which inhibits enzyme activity. The samples were immediately centrifuged at high speed to pellet the microsomes and the supernatants were analysed via LC/MS
However, for simplicity and speed of assessment we opted to identify the removal of the pro-drug moieties using LC/MS in selected-ion mode (SIM). We scanned for specific mass-to-charge ratios (m/z) based on the molecules molecular weight. […] LB55 was incubated with the human liver microsomes for 180 min and samples were taken at 0, 10, 20, 30, 60, 120, and 180 min and analysed via LC/MS in SIM mode. The scanning range was set at m/z 600–800, as this range would capture both the parent LB55 and any demethylated metabolites including LB51 (Figure 3).
Using the same commercially available liver microsomal assay described earlier, we evaluated the removal of acetylated and trifluoroacetylated amino acids. The studies were performed on three amino acids on LB51 that required protecting groups: serine, tyrosine, and lysine (Figure 4).

[2] = tested on: Hsp90-Cyp40 interaction (C-terminal domain of Hsp90 and full-length Cyp40); experiment: AlphaLISA binding assay, Hsp90-Cyp40 interaction; conditions: for efficacy at inhibiting the binding event between Hsp90 and Cyp40: C-terminal domain of Hsp90 and full-length Cyp40; for IC50: C-terminal domain of Hsp90 and full-length Cyp40, DMSO (1%) = 100% binding, read-out: IC50, inhibition of Hsp90-Cyp40 interaction
Protocol: The binding assays were performed using an Hsp90 (C-terminal) Inhibitor Screening Kits (cat. 50314 or 50317) purchased from BPS Bioscience. The assay was performed according to the manufacturer's protocol and utilised AlphaLISA® technology (PerkinElmer). The test compounds were dissolved in 100% DMSO and diluted with water to the desired concentration, so that the final dilution was dissolved in 5% DMSO with water. Two microlitres of the dilution was added to a 10 µL reaction so that the final concentration of DMSO was 1% in all reactions. The reactions were conducted at room temperature for 30 min in a 10 µL mixture containing assay buffer, 6 ng (24 nM) of a C-terminal Hsp90β (UniProt P08238, a.a. 527–724) or C-terminal Hsp90α (UniProt P07900, a.a. 535–732), 40 ng (60 nM) Cyp40, and the test compound. Note: for the full-length Hsp90 binding assays, C-terminal Hsp90 was replaced with 24 nM of full-length Hsp90α (Abcam cat # ab48801). After the 30 min incubation, 10 µL of buffer containing 20 µg/mL glutathione acceptor beads (Perkin Elmer) were added to the reaction mix and incubated for 30 min in the dark. Ten microlitres of 40 µg/mL streptavidin donor beads (Perkin Elmer) were then added and the final 30 µL mixture was incubated for 1 h in the dark. The AlphaLISA® signal was measured using a Tecan F200 Pro multimode plate reader.
Modifications to the side chains using the common strategy of O- and N-alkylations were the first prodrugs produced (Figure 2). Compounds LB58, LB56, LB97, and LB55 were all based on the structure of LB51 but contained polar side chains that were masked with methyl moieties (Figure 2). […] However, masking groups often affect the target binding affinity, and evaluation of these molecules in binding assays was required. A biochemical assay using AlphaLISA technology was used to evaluate the efficacy of these molecules in blocking the interaction between Hsp90 and the co-chaperone, Cyp40 (Figure 2). Each compound was incubated at multiple concentrations with the C-terminal domain of Hsp90 and full-length Cyp40. Beads specific for each protein were incubated with the reaction mixture. When the two proteins are bound to each other, the beads for one protein transfer energy to the beads of the other protein, thereby producing a signal. When the binding interaction between the two proteins is inhibited, energy transfer cannot occur, which results in no signal being produced. DMSO (1%) was used as a control, where it represents 100% binding between the two proteins.
The alpha biochemical assay was used to evaluate the efficacy of these two molecules, LB51(Ac)2–Cbz and LB63(Ac)2–Cbz, in blocking the interaction between Hsp90 and the co-chaperone, Cyp40 (Figure 6(A)). Each compound was incubated at multiple concentrations with the C-terminal domain of Hsp90 and full-length Cyp40. DMSO (1%) was used as a negative control to represent 100% binding between the two proteins, and LB51 and LB63 were used as positive controls, inhibiting the binding event. LB51(Ac)2–Cbz was ineffective at inhibiting the interaction between Hsp90 and Cyp40 (Figure 6(a)).

Caco-2 = conditions: cited from earlier work; for apparent permeability Papp: Caco-2 assays
mouse liver = experiment: Metabolism assay in a mouse (liver extract, LC/MS); type: in vivo; conditions: IP injection 59.4 mg/kg, 1 h
Protocol: Mice were purchased from Australian BioResources (ABR) (Moss Vale, NSW, Australia) at 7 weeks of age and shipped to a specific pathogen-free facility at UNSW Biological Resources Centre (Sydney, Australia) with 12 h light/dark cycles. Following 1 week of acclimatisation, mice were injected in the intraperitoneal space with LB55 (1.2 mg in 120 µL Milli-Q water). One hour later, mice were euthanised by CO2 asphyxiation and the liver was collected for drug extraction. All mouse experiments were approved by the UNSW Animal Care and Ethics Committee. To extract the compound for LC/MS analysis, the liver tissue was powdered in a mortar and pestle that had been pre-cooled with liquid nitrogen. The tissue was then homogenised in phosphate buffered saline (pH 7.4) by sonication for 2 h. The homogenate was then centrifuged at 800 × g for 10 min at 4 °C before collecting the supernatant. […] The extraction was then centrifuged at 1000 × g for 10 min at 4 °C and subsequently analysed by LC/MS.
The stability of LB55 in a mouse liver was accomplished by treating the mouse with LB55 via intraperitoneal (IP) injection at 59.4 mg/kg for 1 h. […] The mixture was then centrifuged, and the supernatant was analysed via LC/MS in SIM mode, scanning for parent LB55 and any demethylated metabolites including LB51.

[3] = biological target: C-terminal Hsp90 (His-tagged, competitive binding assay); experiment: pull-down; competitive binding: C-terminal Hsp90 (100 µM) with LB51-tag (100 µM) 1 h at RT, then untagged compound (0–100 µM) 1 h; captured on NeutrAvidin agarose, 6 washes; Hsp90 detected by Western blot with anti-6×His; DMSO = 100% binding
Sequence of C-terminal Hsp90 (His-tagged, competitive binding assay) (P08238 527-724): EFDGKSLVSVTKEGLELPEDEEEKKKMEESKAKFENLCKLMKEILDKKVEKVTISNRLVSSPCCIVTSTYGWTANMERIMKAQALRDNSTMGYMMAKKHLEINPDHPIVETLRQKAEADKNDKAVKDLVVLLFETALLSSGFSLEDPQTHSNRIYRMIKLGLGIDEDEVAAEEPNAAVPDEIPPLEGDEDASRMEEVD

C-terminal Hsp90β [4] = biological target: T1, C-terminal Hsp90β (UniProt P08238, a.a. 527–724) or C-terminal Hsp90α (UniProt P07900, a.a. 535–732) (UniProt P08238); experiment: AlphaScreen or HTRF; AlphaLISA competition (BPS Bioscience kit): 24 nM C-terminal Hsp90, 60 nM Cyp40 and test compound in 10 µL assay buffer, 1% DMSO, room temperature, 30 min; then glutathione acceptor beads and streptavidin donor beads; DMSO = 100% binding
C-terminal Hsp90β [5] = biological target: T1, C-terminal Hsp90β; experiment: as above; remark: listed apart in the source

For `CC(=O)NCCCC[C@H](NC(=O)OCC1c2ccccc2-c2ccccc21)C(=O)O`, the “cleavage of acetyl or trifluoroacetyl group by human liver microsomes” value [1] was “not cleaved”.

For `NCCCC[C@@H]1NC(=O)[C@H](Cc2ccccc2)NC(=O)[C@H](Cc2ccc(O)cc2)NC(=O)[C@H](CO)NC(=O)[C@H](CC(N)=O)NC1=O` [LB51] (cyclo(KNSYF)), the “efficacy at inhibiting the binding event between Hsp90 and Cyp40” value [2] is given as “most effective”, the IC50 [2] is given as 4 µM and the “apparent permeability Papp” value (Caco-2) is given as 3.3 ×10⁻⁶ cm/s and 3 ×10⁻⁶ cm/s. For the same molecule, the membrane permeability Papp (Caco-2; backbone N-methylation study) was 3 10^-6 cm/s.

For `CC(=O)OC[C@H](NC(=O)OCC1c2ccccc2-c2ccccc21)C(=O)O` [Fmoc-Ser(Ac)-OH], the “cleavage of acetyl group by human liver microsomes” value [1] was “mostly cleaved”.

Molecule `CC(=O)OC[C@@H]1NC(=O)[C@H](CC(N)=O)NC(=O)[C@H](CCCCNC(=O)OCc2ccccc2)NC(=O)[C@H](C)NC(=O)[C@H](Cc2ccc(OC(C)=O)cc2)NC1=O` [LB63(Ac)2–Cbz, cyclo-Ala-Tyr(Ac)-Ser(Ac)-Asn-Lys(Cbz)] (cyclo(K(Cbz)NS(Ac)Y(Ac)A)) has an IC50 [2] of 10 µM.

For `CC(=O)Oc1ccc(C[C@H](NC(=O)OCC2c3ccccc3-c3ccccc32)C(=O)O)cc1` [Fmoc-Tyr(Ac)-OH], the “cleavage of acetyl group by human liver microsomes” value [1] was “mostly cleaved”.

For `CNCCCC[C@@H]1NC(=O)[C@H](Cc2ccccc2)NC(=O)[C@H](Cc2ccc(OC)cc2)NC(=O)[C@H](CO)NC(=O)[C@H](CC(N)=O)NC1=O` [LB97] (cyclo([Lys(Me)]NSY(Me)F)), the “efficacy at inhibiting the binding event between Hsp90 and Cyp40” value [2] is given as “most effective” and the “apparent permeability Papp” value (Caco-2) is given as 1.9 ×10⁻⁶ cm/s.

For `COC[C@@H]1NC(=O)[C@H](CC(N)=O)NC(=O)[C@H](CCCCN(C)C)NC(=O)[C@H](Cc2ccccc2)NC(=O)[C@H](Cc2ccc(OC)cc2)NC1=O` [LB55] (cyclo([Lys(Me2)]NS(Me)Y(Me)F)), the “metabolism by human liver microsomes (LC/MS SIM)” value ([1]; 5 µM, NADPH, 37 °C, 180 min) is listed as “no metabolism occurred”, the “metabolism in mouse liver (LC/MS of liver extract)” value (mouse liver) is listed as “a small quantity of LB51 is produced” and the “apparent permeability Papp” value (Caco-2) is listed as 5.6 ×10⁻⁶ cm/s.

In the case of `CC(=O)OC[C@@H]1NC(=O)[C@H](CC(N)=O)NC(=O)[C@H](CCCCNC(=O)OCc2ccccc2)NC(=O)[C@H](Cc2ccccc2)NC(=O)[C@H](Cc2ccc(OC(C)=O)cc2)NC1=O` [LB51(Ac)2–Cbz, cyclo-Phe-Tyr(Ac)-Ser(Ac)-Asn-Lys(Cbz)] (cyclo(K(Cbz)NS(Ac)Y(Ac)F)), the “efficacy at inhibiting the binding event between Hsp90 and Cyp40” value [2] is reported as “ineffective”.

For `C[C@@H]1NC(=O)[C@H](Cc2ccc(O)cc2)NC(=O)[C@H](CO)NC(=O)[C@H](CC(N)=O)NC(=O)[C@H](CCCCN)NC1=O` [LB63] (cyclo(KNSYA)), the IC50 [2] is listed as 2 µM and the “apparent permeability Papp” value (Caco-2) is listed as 0.9 ×10⁻⁶ cm/s.

With `O=C(N[C@@H](CCCCNC(=O)C(F)(F)F)C(=O)O)OCC1c2ccccc2-c2ccccc21` [Fmoc-Lys(Tfa)-OH] the “cleavage of acetyl or trifluoroacetyl group by human liver microsomes” value [1] was “not cleaved”.

B1: LB63(Ac)2–Cbz (peptide)
peptide: cyclo(K(Cbz)NS(Ac)Y(Ac)A)
SMILES: CC(=O)OC[C@@H]1NC(=O)[C@H](CC(N)=O)NC(=O)[C@H](CCCCNC(=O)OCc2ccccc2)NC(=O)[C@H](C)NC(=O)[C@H](Cc2ccc(OC(C)=O)cc2)NC1=O
With B1 the IC50 [3] was 20 µM, the IC50 (C-terminal Hsp90β [4]) was 10 µM and the IC50 (C-terminal Hsp90β [5]) was greater than 10 µM.

B2: LB51(Ac)2–Cbz (peptide)
peptide: cyclo(K(Cbz)NS(Ac)Y(Ac)F)
SMILES: CC(=O)OC[C@@H]1NC(=O)[C@H](CC(N)=O)NC(=O)[C@H](CCCCNC(=O)OCc2ccccc2)NC(=O)[C@H](Cc2ccccc2)NC(=O)[C@H](Cc2ccc(OC(C)=O)cc2)NC1=O
Work on B2 yielded an IC50 (C-terminal Hsp90β [5]) greater than 10 µM.

KNSYF (head-to-tail cyclic) [LB51] gave an IC50 (C-terminal Hsp90β [4]) of 4 µM.

In the case of KNSYA (head-to-tail cyclic) [LB63], the IC50 (C-terminal Hsp90β [4]) is reported as 2 µM.
